Test results as given in patent publication US11638744B2, “Immunity enhancing agent for cancer by Allergin-1 antagonist” (ONO PHARMACEUTICAL CO., LTD., priority 2015, dated 2023).

Legend:
[1] = tested on: intraperitoneal macrophages (CD11b+F4/80+ cells); assay: Production of IFNβ after cGAMP stimulation of intraperitoneal macrophages; type: cell-based, mouse; conditions: macrophages derived from Alg1-KO mice versus WT; 3, 10 or 30 μM; 24 and 48 hours
Protocol: To C57BL/6N mice and Alg1-KO mice, a 3% thioglycolate medium was intraperitoneally administered at 1 mL/body. After 3 days, 5 mL of 5 mM EDTA/PBS was injected for intraperitoneal lavage and the drain was collected. After haemolysis treatment, the proportion of CD11b^+F4/80^+ cells among intraperitoneal invasive cells was calculated on a flow cytometer.
The cells were seeded in a 96-well plate so that the CD11b^+F4/80^+ cells are 2×10^5 cells/well, the culture supernatant was discarded after 1 hour, the cells were washed once with the medium and the medium containing 3, 10 or 30 μM cyclic GMP-AMP (cGAMP), respectively was added. The culture supernatant was collected after 24 and 48 hours and the amount of IFN-β in the culture supernatants was measured.

TLR7 = assay: Production of type I IFN after administration of polyuridine (serum ELISA); type: in vivo; conditions: Alg1-KO mice versus WT; 50 μg/mouse i.v. with DOTAP; 2 and 6 hours after administration
Protocol: To C57BL/6 mice (WT mice) and Alg1-KO mice, polyuridine was intravenously administered together with a liposome transfection reagent, DOTAP. The dosage was 50 μg/mouse. Serum IFNα and IFNβ were measured by ELISA at 2 and 6 hours after administration.

| Substance | production of IFNβ (culture supernatant) [1] | production of IFNα (serum) (TLR7) | production of IFNβ (serum) (TLR7) |
| --- | --- | --- | --- |
| cyclic GMP-AMP [cGAMP] | increased compared to WT |  |  |
| polyuridine |  | increased compared to WT | increased compared to WT |
